Measurements from patent US20230044943A1, “Pharmaceutical Combinations” (ARRAY BIOPHARMA INC., priority 2016, published 2023).

Experiments:
[1] = Tolerability (body weight change, adverse events) in study TRP-377-HT29-XEF; assay type: in vivo; details: mean ± SEM, day of maximum change in parentheses; HT-29 tumor-bearing nude mice; LGX818 20 mg/kg po qd, MEK162 3.5 mg/kg po bid, cetuximab 20 mg/kg ip 2qw
Description: Animal wellbeing and behavior, including grooming and ambulation were monitored twice daily. General health of mice was monitored and mortality recorded daily. Any moribund animals were sacrificed.
(§1) Animals were weight at dosing day(s) and dose was body weight adjusted, dosing volume was 10 mL/kg. Tumor dimensions and body weights were collected at the time of randomization and twice weekly thereafter for the study duration. The following data were provided after each day of data collection: incidence of mortality, individual and group average body weights, and individual and group average tumor volume.
The % change in body was calculated as (BWcurrent−BWinitial)/(BWinitial)×100. Data is presented as percent body weight change from the day of treatment initiation.

[2] = Stability of test compound dosing formulation; assay type: physicochemical
Description: LGX818 was dissolved in 0.5% CMC/0.5% Tween 80.
MEK162 was dissolved in 1% CMC/0.5% Tween 80.

[3] = test system: HT-29 BRAF mutant colorectal cancer (CRC) xenograft tumor model; experiment: Anti-tumor efficacy in HT-29 colon cancer xenograft model (study TRP-377-HT29-XEF); assay type: in vivo, female nude mice (Mus musculus); details: HT-29 xenograft, day 43 after 21 days of treatment; LGX818 20 mg/kg po qd, MEK162 3.5 mg/kg po bid, cetuximab 20 mg/kg ip 2qw
Description: as §1
All data were expressed as mean±standard error of the mean (SEM). […] For all statistical evaluations, the level of significance was set at p<0.05. Significance compared to the vehicle control group is reported unless otherwise stated.

| Compound | % Maximum BW change (day) [1] | Stability of dosing formulation ([2]; dissolved in 0.5% CMC/0.5% Tween 80, room temperature) | T/C (percent tumor volume change treated over control group) [3] | Stability of dosing formulation ([2]; dissolved in 1% CMC/0.5% Tween 80, room temperature) |
| --- | --- | --- | --- | --- |
| COC(=O)N[C@@H](C)CNc1nccc(-c2cn(C(C)C)nc2-c2cc(Cl)cc(NS(C)(=O)=O)c2F)n1 [LGX818, methyl N-[(2S)-1-({4-[3-(5-chloro-2-fluoro-3-methanesulfonamidophenyl)-1-(propan-2-yl)-1H-pyrazol-4-yl]pyrimidin-2-yl}amino)propan-2-yl]carbamate] | −1.6 ± 0.98 (day 29) % | stable for at least one week | 42% |  |
| Cn1cnc2c(F)c(Nc3ccc(Br)cc3F)c(C(=O)NOCCO)cc21 [MEK162, 6-(4-bromo-2-fluorophenylamino)-7-fluoro-3-methyl-3H-benzoimidazole-5-carboxylic acid (2-hydroxyethoxy)-amide] | −4.1 ± 1.02 (day 29) % |  | 28% | stable for at least one week |
